# Test results published in US12201632B2, “Levoketoconazole for treatment of congenital adrenal hyperplasia and primary aldosteronism” (Strongbridge Dublin Limited, priority 2018, dated 2025).
# Marks after values point to notes of the source that are not given here.
# How the values were obtained:
# [1] = test system: HAC15 cells; test: Cortisol production by HAC15 cells (immunoassay); assay type: cell-based, Human; conditions: HAC15, 10 nM ACTH
# Description: Human adrenocortical carcinoma HAC15 and mouse corticotroph AtT20 cells were used, purchased as a kind gift by Dr. W. Rainey, and obtained from Dr. J. Tooze (European Organization for Molecular Biology), respectively. Both cell lines were cultured in 75 cm^2 flasks at 37° C. in a humidified incubator (Greiner Bio-One, Alphen a/d Rijn, the Netherlands) at 5% CO2. Dulbecco's Modified Eagle Medium F12 containing 5% fetal calf serum was used for HAC15, whereas AtT20 cells were cultured in Dulbecco's minimal essential medium (DMEM) supplemented with 10% fetal calf serum. Both mediums were supplemented with L-glutamine (2 mmol/L) and penicillin (10^5 U/L). Short tandem repeat (str) profiling using a Powerplex Kit (Promega, Leiden, the Netherlands) of HAC15 and AtT20 gave results consistent with the ATCC database, confirming the identity of both cell lines. Medium and supplements were obtained from Invitrogen, Breda, the Netherlands. Once a week, cells were harvested with trypsin (0.05%)-EDTA (0.53 mM) and resuspended in culture medium. Levoketoconazole (COR-003) and racemic ketoconazole (both from Cortendo AB) were dissolved in absolute ethanol (EtOH), according to manufacturer's instructions, and stored at −20° C. at a stock concentration of […]. At the start of each experiment, both drugs were freshly prepared and diluted in EtOH in the correct concentrations. Synacten (synthetic ACTH, Novartis Pharma A.G.) stock concentration was stored at 4° C. and dissolved in culture medium at the day of use. The final concentrations of ACTH were chosen based on a dose-response curve in HAC15 cells and previously reported studies in the literature. For HAC15, 200,000 and 100,000 cells were plated in 0.5 ml medium in 24 well plates for experiments of 1 and 3 days, respectively. […]
# Cortisol concentrations were measured in the supernatant using a chemiluminescence immunoassay system (Immulite 2000XPi; Siemens DPC Inc., Los Angeles, Calif., USA). In addition, we carried out multi-steroid analysis by liquid chromatography/mass spectrometry (LC/MS-MS) to accurately quantify androstenedione, corticosterone, cortisol, 11-deoxycortisol, DHEA, DHEAS, progesterone, 17-hydroxyprogesterone, and testosterone. […] Steroids were quantified with respect to a calibration series, with internal standards. Steroids were quantified on a Xevo TQS LC-MS/MS (Waters Chromatography).
# Statistical analysis was performed using Graphpad Prism 6.0 (Graphpad Software, San Diego, CA). […] Effects of both compounds on the steroid profile were measured as absolute change compared to control and compared using the Student's t-test. When assessing differences between effects of both compounds, the percentage change was evaluated and compared in order to correct for differences in the vehicle treated control cells. […]
# [2] = test system: EAS associated adrenal hyperplasia cultures; test: Cortisol production in primary EAS associated adrenal hyperplasia cultures; assay type: cell-based, human; conditions: EAS associated hyperplasia no. 1, ACTH (85 μM), mean percentage increase of cortisol production compared to control
# Description: (§1) To obtain primary cultures, adrenal specimens (adrenocortical adenomas, adrenal hyperplasias and adrenocortical carcinomas) were collected after adrenalectomy at the department of Surgery, Erasmus University Medical Center, Rotterdam, the Netherlands, between April 2016 and May 2018. The study was conducted under guidelines that have been approved by the Medical Ethics Committee of the Erasmus Medical Center and informed consent was obtained from all patients. Immediately after surgery, specimens were minced into small pieces of 2-3 mm^3, washed in culture medium and centrifuged for 5 minutes at 600 g. The tissue was stored overnight in culture medium at 4° C., where after the tissue was centrifuged again and the supernatant was removed. Fragments were dissociated using 10-25 ml collagenase type 1 (2 mg/ml: Sigma-Aldrich), followed by incubation at 37° C. for up to two hours. Ficoll (GE healthcare) density gradient separation was used once or twice as required in order to separate contaminating red blood cells from the tumor cells. Cell viability and cell amount were counted by trypan blue exclusion. Dissociated cells were plated at a density of 10^5 cells per well. ACTH-secreting corticotroph pituitary adenoma tissue from patients with Cushing's disease (n=2) was available after transsphenoidal surgery. Single-cell suspensions of the pituitary adenoma tissues were prepared as previously described in detail.
# (§2) Owing to a limited number of cells obtained from the specimens, not all experiments were carried out in every primary culture.
# (§3) Cortisol concentrations were measured in the supernatant using a chemiluminescence immunoassay system (Immulite 2000XPi; Siemens DPC Inc., Los Angeles, Calif., USA). In addition, we carried out multi-steroid analysis by liquid chromatography/mass spectrometry (LC/MS-MS) to accurately quantify androstenedione, corticosterone, cortisol, 11-deoxycortisol, DHEA, DHEAS, progesterone, 17-hydroxyprogesterone, and testosterone. Concentrations that were tested on the LC/MS-MS were closest to 50% inhibition or maximal inhibition of cortisol as determined by the immunoassay. Steroids were quantified with respect to a calibration series, with internal standards. Steroids were quantified on a Xevo TQS LC-MS/MS (Waters Chromatography).
# (§4) Statistical analysis was performed using Graphpad Prism 6.0 (Graphpad Software, San Diego, CA). Non-linear regression curve fitting program was used to calculate the half maximal inhibitory concentrations (IC50) on cortisol production. Effects of both compounds on the steroid profile were measured as absolute change compared to control and compared using the Student's t-test. When assessing differences between effects of both compounds, the percentage change was evaluated and compared in order to correct for differences in the vehicle treated control cells. Values of P<0.05 were considered statistically significant and data are presented as mean SEM.
# [3] = test system: primary human adrenocortical carcinoma cultures; test: Cortisol production in primary adrenocortical carcinoma cultures; assay type: cell-based; conditions: ACC no. 3, ACTH (85 μM), mean percentage increase of cortisol production compared to control
# Description: as §1, §2, §3, §4
# [4] = test system: HAC15 cells; test: Steroid profile by LC/MS-MS in HAC15 cells; assay type: cell-based, Human; conditions: HAC15
# Description: Human adrenocortical carcinoma HAC15 and mouse corticotroph AtT20 cells were used, purchased as a kind gift by Dr. W. Rainey, and obtained from Dr. J. Tooze (European Organization for Molecular Biology), respectively. Both cell lines were cultured in 75 cm^2 flasks at 37° C. in a humidified incubator (Greiner Bio-One, Alphen a/d Rijn, the Netherlands) at 5% CO2. Dulbecco's Modified Eagle Medium F12 containing 5% fetal calf serum was used for HAC15, whereas AtT20 cells were cultured in Dulbecco's minimal essential medium (DMEM) supplemented with 10% fetal calf serum. Both mediums were supplemented with L-glutamine (2 mmol/L) and penicillin (10^5 U/L). Short tandem repeat (str) profiling using a Powerplex Kit (Promega, Leiden, the Netherlands) of HAC15 and AtT20 gave results consistent with the ATCC database, confirming the identity of both cell lines. Medium and supplements were obtained from Invitrogen, Breda, the Netherlands. Once a week, cells were harvested with trypsin (0.05%)-EDTA (0.53 mM) and resuspended in culture medium. Levoketoconazole (COR-003) and racemic ketoconazole (both from Cortendo AB) were dissolved in absolute ethanol (EtOH), according to manufacturer's instructions, and stored at −20° C. at a stock concentration of […]. At the start of each experiment, both drugs were freshly prepared and diluted in EtOH in the correct concentrations. Synacten (synthetic ACTH, Novartis Pharma A.G.) stock concentration was stored at 4° C. and dissolved in culture medium at the day of use. The final concentrations of ACTH were chosen based on a dose-response curve in HAC15 cells and previously reported studies in the literature. For HAC15, 200,000 and 100,000 cells were plated in 0.5 ml medium in 24 well plates for experiments of 1 and 3 days, respectively. For AtT20, cell amounts were 100,000 and 30,000. One day after seeding the HAC15 cells, the medium was refreshed and cells were treated 1 or 3 days in quadruplicate with levoketoconazole or racemic ketoconazole (0.05-5 μM), with or without 10 nM ACTH. To study effects of both compounds on pituitary AtT20 cells, concentrations of 0.1 to 10 μM of both drugs were used. Controls were vehicle treated. […] Media were collected after 1 or 3 days of incubation and stored at −20° C. until analysis. All cell culture experiments were carried out at least twice.
# as §3, §4
# [5] = test system: EAS associated adrenal hyperplasia no. 1 primary culture; test: Steroid profile by LC/MS-MS in EAS associated adrenal hyperplasia no. 1; assay type: cell-based, human; conditions: EAS associated adrenal hyperplasia no. 1
# Description: as §1
# Primary culture conditions for primary cultures were similar as described in the section ‘cell culture and compounds’, but with small adjustments: ACTH was used at a concentration of 85 pM (250 pg/mL), treatment was started 3-4 days after plating of the cells and cells were incubated for 3 days, and; for pituitary primary cultures, levoketoconazole and racemic ketoconazole were only tested at a concentration of 1 μM. Owing to a limited number of cells obtained from the specimens, not all experiments were carried out in every primary culture.
# as §3, §4
substance,measurement,setting,value
"ACTH: Synacten (synthetic ACTH, Novartis Pharma A.G.), used to stimulate cortisol production",mean increase in cortisol by ACTH stimulation,[1]; 1 day of incubation,34%
same,mean increase in cortisol by ACTH stimulation,[1]; 3 days of incubation,61%
same,ACTH stimulated cortisol (%),[2],+228%
same,ACTH stimulated cortisol (%),[3],+67% *
same,increase of corticosterone under ACTH,[4],359%
same,increase of progesterone under ACTH,[4],7%
same,change of progesterone by ACTH stimulation,[5],−11%
same,change of testosterone by ACTH stimulation,[5],did not change
same,"mean increase of corticosterone, 17-OHP, 11-DOC, cortisol and androstenedione by ACTH stimulation",[5],+111%
